Assay [1] deals with plants. The note with it: cited from earlier work.
Assay [2] concerns the target T1, BIN1-116, Q583-stop (70-aa island) (Arabidopsis thaliana, UniProt O22476).
T1 construct: microsomal fractions of wild type (WT), det2, BIN1-6, BIN1-116, BIN1-104, and BIN1-102 mutant plants; from tissue; host or cells: microsomal fractions of BIN1-116 mutant Arabidopsis plants
T1 sequence (O22476 24-582 limits assumed): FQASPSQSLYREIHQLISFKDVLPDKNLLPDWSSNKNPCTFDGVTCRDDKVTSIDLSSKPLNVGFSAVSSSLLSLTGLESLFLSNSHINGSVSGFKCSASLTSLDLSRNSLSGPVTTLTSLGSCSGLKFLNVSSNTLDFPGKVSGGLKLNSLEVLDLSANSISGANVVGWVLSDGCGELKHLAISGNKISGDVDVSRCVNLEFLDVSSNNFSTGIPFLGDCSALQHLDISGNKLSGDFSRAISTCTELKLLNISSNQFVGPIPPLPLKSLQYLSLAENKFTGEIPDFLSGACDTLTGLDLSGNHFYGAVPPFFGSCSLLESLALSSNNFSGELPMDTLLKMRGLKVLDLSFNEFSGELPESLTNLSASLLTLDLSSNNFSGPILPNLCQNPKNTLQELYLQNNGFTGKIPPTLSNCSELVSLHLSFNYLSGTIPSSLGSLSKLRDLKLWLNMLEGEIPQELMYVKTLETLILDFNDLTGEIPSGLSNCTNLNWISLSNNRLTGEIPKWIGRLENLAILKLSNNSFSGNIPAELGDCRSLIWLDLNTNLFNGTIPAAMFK
Type of assay: binding. Particulars: BIN1-116 mutant, compared with wild type. An excerpt:
(§1) Mutations in large numbers of BIN1 alleles implicate the functional importance of the cytoplasmic kinase domain and the 70-aa island of BIN1's extracellular domain.
(§2) Tetrahedron Lett. 39, 7525-7528 (1998). […] Science 288, 2360-3 (2000).

Assay [3] deals with T2, BIN1-6, G644-D (70-aa island) (Arabidopsis thaliana, UniProt O22476, G644D).
T2 construct: microsomal fractions of wild type (WT), det2, BIN1-6, BIN1-116, BIN1-104, and BIN1-102 mutant plants; from tissue; host or cells: microsomal fractions of BIN1-6 mutant Arabidopsis plants
T2 sequence (O22476 24-1196 G644D): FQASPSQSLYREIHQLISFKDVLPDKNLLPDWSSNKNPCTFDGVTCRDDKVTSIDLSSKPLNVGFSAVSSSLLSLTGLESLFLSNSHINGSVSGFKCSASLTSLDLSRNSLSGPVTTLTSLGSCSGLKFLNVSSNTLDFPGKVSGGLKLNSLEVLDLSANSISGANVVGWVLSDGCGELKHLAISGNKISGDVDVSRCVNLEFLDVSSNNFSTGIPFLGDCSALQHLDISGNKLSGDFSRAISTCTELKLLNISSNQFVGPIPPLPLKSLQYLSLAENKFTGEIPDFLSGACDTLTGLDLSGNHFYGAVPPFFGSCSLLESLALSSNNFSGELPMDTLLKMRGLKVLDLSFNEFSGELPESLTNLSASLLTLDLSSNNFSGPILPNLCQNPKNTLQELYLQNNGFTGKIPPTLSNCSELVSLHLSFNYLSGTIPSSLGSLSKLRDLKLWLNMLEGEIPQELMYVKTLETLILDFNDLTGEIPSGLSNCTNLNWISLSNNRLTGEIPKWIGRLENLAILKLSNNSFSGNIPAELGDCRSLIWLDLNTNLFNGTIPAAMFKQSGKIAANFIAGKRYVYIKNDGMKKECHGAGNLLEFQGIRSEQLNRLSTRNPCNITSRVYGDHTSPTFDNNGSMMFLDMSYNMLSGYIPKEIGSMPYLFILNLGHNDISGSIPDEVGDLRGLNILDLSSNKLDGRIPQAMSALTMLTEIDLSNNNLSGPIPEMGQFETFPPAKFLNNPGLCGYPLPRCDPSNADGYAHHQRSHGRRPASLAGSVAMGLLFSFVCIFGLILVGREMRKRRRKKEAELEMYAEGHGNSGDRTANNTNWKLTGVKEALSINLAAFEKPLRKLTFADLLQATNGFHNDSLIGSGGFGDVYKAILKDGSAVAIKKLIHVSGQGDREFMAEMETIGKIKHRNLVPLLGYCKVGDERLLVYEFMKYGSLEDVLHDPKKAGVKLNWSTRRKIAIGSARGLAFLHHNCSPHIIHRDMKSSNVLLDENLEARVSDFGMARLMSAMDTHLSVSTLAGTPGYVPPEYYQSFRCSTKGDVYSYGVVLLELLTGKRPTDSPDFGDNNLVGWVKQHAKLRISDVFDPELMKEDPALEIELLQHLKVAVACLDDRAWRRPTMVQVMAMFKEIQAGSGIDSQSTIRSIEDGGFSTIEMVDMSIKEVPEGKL
It counts as binding. The note with it: BIN1-6 mutant, compared with wild type.
Excerpt: as §1, §2

Assay [4] relates to BIN1. The assay can be described thus: BL induced BIN1 phosphorylation in seedlings (mobility shift on SDS-PAGE, immunoblot). Particulars: BIN1-6 and BIN1117 mutant seedlings, 1 μM BL for 1 hour. Type of assay: in vivo, Arabidopsis.
Protocol: (§3) Proteins were analyzed by 4% SDS-PAGE, blotted, and probed with anti-BIN1N antibody. b.
(§4) Samples were analyzed by SDS-PAGE using 4% gels and western blotting as described above. […] For phosphatase treatment, SDS was removed from protein samples using the SDS-OUT kit (Pierce), and the proteins were then treated with alkaline phosphatase (Boehringer Mannheim) and protein phosphatase I (PPI, New England Biolab) under conditions recommended by the manufacturer and as described.
Assay [5] concerns the target T3, BIN1-GFP (Arabidopsis thaliana, UniProt O22476). The note with it: membrane fractions of BIN1-GFP transgenic plants.
Assay [6] deals with T4, BIN1 (Arabidopsis thaliana, UniProt O22476).
T4 sequence (O22476 24-1196): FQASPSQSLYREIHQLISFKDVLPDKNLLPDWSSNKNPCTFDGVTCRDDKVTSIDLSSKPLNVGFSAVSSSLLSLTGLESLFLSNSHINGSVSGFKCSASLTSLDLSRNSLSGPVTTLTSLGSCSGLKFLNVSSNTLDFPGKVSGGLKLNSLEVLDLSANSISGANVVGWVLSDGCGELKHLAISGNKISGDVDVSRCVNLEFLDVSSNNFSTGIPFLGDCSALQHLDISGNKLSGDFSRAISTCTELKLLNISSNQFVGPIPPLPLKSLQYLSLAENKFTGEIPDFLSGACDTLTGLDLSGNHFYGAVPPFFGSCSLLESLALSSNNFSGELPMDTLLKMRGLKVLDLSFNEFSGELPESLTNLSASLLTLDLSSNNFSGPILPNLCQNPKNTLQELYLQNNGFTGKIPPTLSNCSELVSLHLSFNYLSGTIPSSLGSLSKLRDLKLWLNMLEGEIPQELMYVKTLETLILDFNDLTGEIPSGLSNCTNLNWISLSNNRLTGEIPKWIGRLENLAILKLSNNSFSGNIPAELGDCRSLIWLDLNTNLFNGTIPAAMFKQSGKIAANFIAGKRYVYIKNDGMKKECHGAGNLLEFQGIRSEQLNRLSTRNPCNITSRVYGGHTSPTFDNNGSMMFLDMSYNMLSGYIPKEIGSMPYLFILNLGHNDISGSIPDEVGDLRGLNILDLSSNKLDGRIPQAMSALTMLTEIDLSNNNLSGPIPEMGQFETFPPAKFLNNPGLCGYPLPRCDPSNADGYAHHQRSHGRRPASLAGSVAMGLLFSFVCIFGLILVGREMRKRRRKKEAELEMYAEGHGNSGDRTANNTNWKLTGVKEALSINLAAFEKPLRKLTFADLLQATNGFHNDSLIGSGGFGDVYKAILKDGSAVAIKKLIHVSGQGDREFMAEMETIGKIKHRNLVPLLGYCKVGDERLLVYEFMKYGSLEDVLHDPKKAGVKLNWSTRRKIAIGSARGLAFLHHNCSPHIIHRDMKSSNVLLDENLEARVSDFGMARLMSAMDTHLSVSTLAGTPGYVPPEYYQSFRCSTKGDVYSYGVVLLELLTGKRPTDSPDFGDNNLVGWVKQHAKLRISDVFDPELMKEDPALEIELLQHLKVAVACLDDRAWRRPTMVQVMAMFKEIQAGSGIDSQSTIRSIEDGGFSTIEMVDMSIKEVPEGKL
Particulars: membrane fractions of wild-type plants.

Assay [7] deals with T4, BIN1. Description: BL induced BIN1 phosphorylation in seedlings (mobility shift on SDS-PAGE, immunoblot). It counts as in vivo. Further details: from tissue; host or cells: wild-type Arabidopsis seedlings (microsomal fractions in A2; whole seedlings in A10). Particulars: det2 BL biosynthetic mutant seedlings, 1 μM BL for 1 hour. Background: Immunoblotting shows a protein as a band on a membrane.
Protocol: as §3, §4

Assay [8] concerns the target T4, BIN1. The assay can be described thus: Binding kinetic studies of specific BL binding. More on the design: from tissue; host or cells: wild-type Arabidopsis seedlings (microsomal fractions in A2; whole seedlings in A10).
Excerpt: as §2

For assay [9], the target named is T3, BIN1-GFP. It counts as binding. More on the design: expressed in transfected cells; host or cells: transgenic Arabidopsis plants (microsomal fractions, or anti-GFP immunoprecipitate from extracts).

Read-outs that look alike come from different tables or passages of the source.

T3 sequence (O22476 with tags, fused parts or gaps): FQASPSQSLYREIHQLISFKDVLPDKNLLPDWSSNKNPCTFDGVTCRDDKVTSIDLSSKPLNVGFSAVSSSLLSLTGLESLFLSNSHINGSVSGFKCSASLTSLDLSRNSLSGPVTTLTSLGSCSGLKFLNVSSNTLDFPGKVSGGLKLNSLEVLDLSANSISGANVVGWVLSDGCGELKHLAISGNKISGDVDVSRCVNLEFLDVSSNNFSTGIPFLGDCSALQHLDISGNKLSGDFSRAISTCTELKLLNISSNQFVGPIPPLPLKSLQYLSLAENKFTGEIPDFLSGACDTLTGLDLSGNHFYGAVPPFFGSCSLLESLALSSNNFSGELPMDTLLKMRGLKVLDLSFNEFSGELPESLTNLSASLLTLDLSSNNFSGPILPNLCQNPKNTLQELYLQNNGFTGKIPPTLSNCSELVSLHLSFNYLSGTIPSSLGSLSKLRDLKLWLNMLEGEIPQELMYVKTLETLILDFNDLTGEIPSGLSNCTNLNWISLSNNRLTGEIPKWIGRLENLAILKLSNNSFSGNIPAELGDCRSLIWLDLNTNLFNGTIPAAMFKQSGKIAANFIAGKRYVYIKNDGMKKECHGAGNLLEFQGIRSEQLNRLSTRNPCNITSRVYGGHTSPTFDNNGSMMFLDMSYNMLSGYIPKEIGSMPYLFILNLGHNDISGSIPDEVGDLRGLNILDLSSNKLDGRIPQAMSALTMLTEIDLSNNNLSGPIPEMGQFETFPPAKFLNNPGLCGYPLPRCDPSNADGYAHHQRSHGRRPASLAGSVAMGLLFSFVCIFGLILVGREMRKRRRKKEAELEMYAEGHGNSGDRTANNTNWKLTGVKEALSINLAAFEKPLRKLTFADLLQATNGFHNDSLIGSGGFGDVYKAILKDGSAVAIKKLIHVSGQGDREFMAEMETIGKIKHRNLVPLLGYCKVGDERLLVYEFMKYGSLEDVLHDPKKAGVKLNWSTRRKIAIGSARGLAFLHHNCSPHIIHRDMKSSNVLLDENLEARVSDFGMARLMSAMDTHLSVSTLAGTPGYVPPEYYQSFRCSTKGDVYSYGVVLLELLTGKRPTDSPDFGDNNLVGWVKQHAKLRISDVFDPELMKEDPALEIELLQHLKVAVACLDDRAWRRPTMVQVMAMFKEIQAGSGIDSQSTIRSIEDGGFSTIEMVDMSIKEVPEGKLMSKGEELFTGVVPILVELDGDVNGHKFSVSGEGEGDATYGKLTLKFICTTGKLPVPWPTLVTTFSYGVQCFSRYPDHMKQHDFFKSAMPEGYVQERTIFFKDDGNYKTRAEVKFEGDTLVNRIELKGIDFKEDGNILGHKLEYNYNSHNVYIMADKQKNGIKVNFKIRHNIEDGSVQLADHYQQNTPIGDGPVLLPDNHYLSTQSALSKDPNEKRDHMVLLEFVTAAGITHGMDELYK

For 2,3,22,23-O-tetramethylBL [Me-BL], the “biological activity in plants” value in [1] is “lack of biological activity”.

In the case of `CC(C)[C@H](C)[C@@H](O)[C@H](O)[C@@H](C)[C@H]1CC[C@H]2[C@@H]3COC(=O)[C@H]4C[C@H](O)[C@H](O)C[C@]4(C)[C@H]3CC[C@]12C` [BL, brassinolide], the BL binding activity entry in [2] and in assay [3] was “greatly reduced” throughout. The “BL-induced BIN1 phosphorylation” value is “not” in assay [4] and “also observed” in [7]. The “Bmax (BL binding sites)” value in assay [5] was 2.66 pmole mg^−1 membrane protein; in [6] it was 0.23 pmole mg^−1 membrane protein. Further, the “time to 50% competition by unlabelled BL (reversibility of binding)” value in [8] is given as “less than 1 min”. Also, the “time for specific BL binding to reach equilibrium” value in [8] (incubation at 25° C.) is reported as at most 15 min.

For the compound `CC(C)[C@H](C)[C@@H](O)[C@H](O)[C@@H](C)[C@H]1CC[C@H]2[C@@H]3CC(=O)[C@H]4C[C@H](O)[C@H](O)C[C@]4(C)[C@H]3CC[C@]12C` [castasterone], in assay [1] (bioassays), the “activity in bioassays relative to BL” value was “about 5 times less active than BL”. In addition, the “relative binding affinity (RBA, ratio between IC50 of a competitor and that of BL)” value in assay [9] (membrane fraction of BIN1-GFP plants) is 4-5 times lower than BL. For the same compound, the IC50 in assay [9] (read-out: 50% inhibition concentration, IC50, of [3H]-BL binding, membrane fraction of BIN1-GFP plants) is 0.34 µM.

For the compound `C[C@H]([C@H](O)CCC(C)(C)O)[C@H]1CC[C@@]2(O)C3=CC(=O)[C@@H]4C[C@@H](O)[C@@H](O)C[C@]4(C)[C@H]3CC[C@]12C` [ecdysone], the “biological activity in plants” value in assay [1] was “lack of biological activity”. For the same compound, the IC50 in assay [9] was above 10 µM.
